Measurements: PubChem BioAssay (NCI)
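Method: 48-hour compound exposure of cells in 96-well plates, five concentrations, linear interpolation of endpoints. At the TGI there is no net growth.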

Columns and labels:
Experiment in all cases: NCI-60 cell line screen, 48 h
[1] = tested on: 786-0 renal
[2] = tested on: A498 renal
[3] = tested on: ACHN renal
[4] = tested on: BT-549 breast
[5] = tested on: CAKI-1 renal
[6] = tested on: COLO 205 colon
[7] = tested on: DU-145 prostate
[8] = tested on: EKVX NSCLC
[9] = tested on: HCC-2998 colon
[10] = tested on: HCT-116 colon
[11] = tested on: HCT-15 colon
[12] = tested on: HL-60(TB) leukemia
[13] = tested on: HOP-62 NSCLC
[14] = tested on: HS 578T breast
[15] = tested on: HT29 colon
[16] = tested on: IGROV1 ovarian
[17] = tested on: K-562 leukemia
[18] = tested on: KM12 colon
[19] = tested on: LOX IMVI melanoma
[20] = tested on: MALME-3M melanoma
[21] = tested on: MCF7 breast
[22] = tested on: MDA-MB-231 breast
[23] = tested on: MDA-MB-435
[24] = tested on: MDA-N
[25] = tested on: MOLT-4 leukemia
[26] = tested on: NCI-H226 lung
[27] = tested on: NCI-H23 lung
[28] = tested on: NCI-H460 lung
[29] = tested on: NCI-H522 lung
[30] = tested on: NCI/ADR-RES ovarian
[31] = tested on: OVCAR-3 ovarian
[32] = tested on: OVCAR-4 ovarian
[33] = tested on: OVCAR-5 ovarian
[34] = tested on: OVCAR-8 ovarian
[35] = tested on: PC-3 prostate
[36] = tested on: RPMI-8226 leukemia
[37] = tested on: RXF 393 renal
[38] = tested on: SF-268 CNS
[39] = tested on: SF-295 CNS
[40] = tested on: SK-MEL-2 melanoma
[41] = tested on: SK-MEL-28 melanoma
[42] = tested on: SK-MEL-5 melanoma
[43] = tested on: SN12C renal
[44] = tested on: SNB-19 CNS
[45] = tested on: SNB-75 CNS
[46] = tested on: SR leukemia
[47] = tested on: SW-620 colon
[48] = tested on: T-47D breast
[49] = tested on: TK-10 renal
[50] = tested on: U251 CNS
[51] = tested on: UACC-257 melanoma
[52] = tested on: UACC-62 melanoma
[53] = tested on: UO-31 renal
[54] = tested on: A549 NSCLC
[55] = tested on: CCRF-CEM leukemia
[56] = tested on: HOP-92 NSCLC
[57] = tested on: M14 melanoma
[58] = tested on: SF-539 CNS
[59] = tested on: SK-OV-3 ovarian

In the case of `CNC(=S)Nc1sc2c(c1C#N)CCCC2`, the TGI [1] is reported as > 75 µM, the TGI [2] is reported as > 75 µM and the TGI [3] is reported as > 75 µM. The TGI [4] was > 75 µM, the TGI [5] was > 75 µM and the TGI [6] was > 75 µM. For the same compound, the TGI [7] was > 75 µM, the TGI [8] was > 75 µM and the TGI [9] was > 75 µM. The TGI [10] was > 75 µM, the TGI [11] was > 75 µM and the TGI [12] was > 75 µM. The TGI [13] was > 75 µM, the TGI [14] was > 75 µM and the TGI [15] was > 75 µM. For the same compound, the TGI [16] was > 75 µM, the TGI [17] was > 75 µM and the TGI [18] was > 75 µM. The TGI [19] was > 75 µM, the TGI [20] was > 75 µM and the TGI [21] was > 75 µM. The TGI [22] was > 75 µM, the TGI [23] was > 75 µM and the TGI [24] was > 75 µM. The TGI [25] was > 75 µM, the TGI [26] was > 75 µM and the TGI [27] was > 75 µM. For the same compound, the TGI [28] was > 75 µM, the TGI [29] was > 75 µM and the TGI [30] was > 75 µM. For the same compound, the TGI [31] was > 75 µM, the TGI [32] was > 75 µM and the TGI [33] was > 75 µM. The TGI [34] was > 75 µM, the TGI [35] was > 75 µM and the TGI [36] was > 75 µM. The TGI [37] was > 75 µM, the TGI [38] was > 75 µM and the TGI [39] was > 75 µM. For the same compound, the TGI [40] was > 75 µM, the TGI [41] was > 75 µM and the TGI [42] was > 75 µM. The TGI [43] was > 75 µM, the TGI [44] was > 75 µM and the TGI [45] was > 75 µM. For the same compound, the TGI [46] was > 75 µM, the TGI [47] was > 75 µM and the TGI [48] was > 75 µM. For the same compound, the TGI [49] was > 75 µM, the TGI [50] was > 75 µM and the TGI [51] was > 75 µM. The TGI [52] was > 75 µM and the TGI [53] was > 75 µM.

In the case of `COc1cc2c(cc1O)NC(=S)[C@@H]1CCCN1C2=O`, the TGI [1] is reported as > 100 µM, the TGI [2] is reported as > 100 µM and the TGI [54] is reported as > 100 µM. For the same compound, the TGI [3] was > 100 µM, the TGI [4] was > 100 µM and the TGI [5] was > 100 µM. For the same compound, the TGI [55] was > 100 µM, the TGI [6] was > 100 µM and the TGI [7] was > 100 µM. For the same compound, the TGI [8] was > 100 µM, the TGI [9] was > 100 µM and the TGI [10] was > 100 µM. For the same compound, the TGI [11] was > 100 µM, the TGI [13] was > 100 µM and the TGI [56] was > 100 µM. For the same compound, the TGI [14] was > 100 µM, the TGI [15] was > 100 µM and the TGI [16] was > 100 µM. The TGI [17] was > 100 µM, the TGI [18] was > 100 µM and the TGI [19] was > 100 µM. The TGI [57] was > 100 µM, the TGI [20] was > 100 µM and the TGI [21] was > 100 µM. For the same compound, the TGI [22] was > 100 µM, the TGI [23] was > 100 µM and the TGI [24] was > 100 µM. For the same compound, the TGI [25] was > 100 µM, the TGI [26] was > 100 µM and the TGI [27] was > 100 µM. The TGI [28] was > 100 µM, the TGI [29] was > 100 µM and the TGI [30] was > 100 µM. For the same compound, the TGI [31] was > 100 µM, the TGI [32] was > 100 µM and the TGI [33] was > 100 µM. The TGI [34] was > 100 µM, the TGI [35] was > 100 µM and the TGI [36] was > 100 µM. The TGI [37] was > 100 µM, the TGI [38] was > 100 µM and the TGI [39] was > 100 µM. For the same compound, the TGI [58] was > 100 µM, the TGI [40] was > 100 µM and the TGI [41] was > 100 µM. For the same compound, the TGI [42] was > 100 µM, the TGI [59] was > 100 µM and the TGI [43] was > 100 µM. The TGI [44] was > 100 µM, the TGI [45] was > 100 µM and the TGI [46] was > 100 µM. For the same compound, the TGI [47] was > 100 µM, the TGI [48] was > 100 µM and the TGI [49] was > 100 µM. The TGI [50] was > 100 µM, the TGI [51] was > 100 µM and the TGI [52] was > 100 µM. The TGI [53] was > 100 µM.

With `O=C1/C(=C/c2cc3c(=O)c4ccccc4sc3s2)NC(=S)N1c1ccccc1` the TGI [1] was > 100 µM, the TGI [2] was > 100 µM and the TGI [3] was > 100 µM. The TGI [4] was > 100 µM, the TGI [5] was > 100 µM and the TGI [6] was > 100 µM. The TGI [7] was > 100 µM, the TGI [8] was > 100 µM and the TGI [9] was > 100 µM. The TGI [10] was > 100 µM, the TGI [11] was > 100 µM and the TGI [12] was 66.9 µM. The TGI [13] was > 100 µM, the TGI [14] was > 100 µM and the TGI [15] was > 100 µM. The TGI [16] was > 100 µM, the TGI [17] was > 100 µM and the TGI [18] was > 100 µM. The TGI [19] was > 100 µM, the TGI [20] was > 100 µM and the TGI [21] was > 100 µM. The TGI [22] was > 100 µM, the TGI [23] was > 100 µM and the TGI [24] was > 100 µM. The TGI [25] was > 100 µM, the TGI [26] was > 100 µM and the TGI [27] was > 100 µM. The TGI [28] was > 100 µM, the TGI [29] was > 100 µM and the TGI [30] was > 100 µM. For the same compound, the TGI [31] was > 100 µM, the TGI [32] was > 100 µM and the TGI [33] was > 100 µM. For the same compound, the TGI [34] was > 100 µM, the TGI [35] was > 100 µM and the TGI [36] was > 100 µM. The TGI [37] was > 100 µM, the TGI [38] was > 100 µM and the TGI [39] was > 100 µM. The TGI [40] was > 100 µM, the TGI [41] was > 100 µM and the TGI [42] was > 100 µM. For the same compound, the TGI [43] was > 100 µM, the TGI [44] was > 100 µM and the TGI [45] was > 100 µM. For the same compound, the TGI [46] was 49.6 µM, the TGI [47] was > 100 µM and the TGI [48] was > 100 µM. The TGI [49] was > 100 µM, the TGI [50] was > 100 µM and the TGI [51] was > 100 µM. The TGI [52] was > 100 µM and the TGI [53] was > 100 µM.
